Reference: patent US20240415914A1, “Water Dispersible Cannabinoid Compositions” (priority 2021, published 2024)
Like-named read-outs stand apart in the source and are kept apart here.

Columns and labels:
[1] = format: physicochemical; settings: for Stability in Powder Concentrate (content by LCMSMS): stored at room temperature (21-25° C.)
Experimental: At each time period, 0.05 g of powder was dissolved in 10 ml-15 of ethanol, diluted to fall within the analytical range, and injected into the LCMSMS for analysis.

[2] = Stability of cannabinoid and Vitamin E components of Beverage 1 (AB White) stored at 8° C. and 21-25° C., LCMSMS over 570 days; format: physicochemical; settings: for Storage time after which slight degradation / significant losses are seen: AB White; for Stability in AB White, 8° C. (content by LCMSMS): beverage stored at 8° C.
Experimental: The LCMSMS was calibrated for 0-1000 ng/ml cannabinoids with the same resin material used in the preparation of the concentrates. At each time period, 100 ml of beverage was diluted with 10 ml of methanol and injected into the LCMSMS for analysis.

[3] = Stability of cannabinoid and Vitamin E components of Beverage 2 (AB Red) stored at 8° C. and 21-25° C., LCMSMS over 570 days; settings: AB Red
Experimental: The LCMSMS was calibrated for 0-50 ng/ml cannabinoids with the same resin material used in the preparation of the concentrates. At each time period, 100 μml of beverage was diluted with 10 ml of methanol and injected into the LCMSMS for analysis.

## C=C(C)[C@@H]1CCC(C)=C[C@H]1c1c(O)cc(CCCCC)cc1O [CBD, cannabidiol, reference compound]
[1]; powder concentrate, room temperature (21-25° C.), 570 days
  Chemical stability over the entire period (result in words): no significant degradation
[1]; day 0
  Stability in Powder Concentrate (content by LCMSMS): 5.85 mg/g powder
[1]; day 1
  Stability in Powder Concentrate (content by LCMSMS): 5.69 mg/g powder
[1]; day 2
  Stability in Powder Concentrate (content by LCMSMS): 5.76 mg/g powder
[1]; day 3
  Stability in Powder Concentrate (content by LCMSMS): 5.81 mg/g powder
[1]; day 5
  Stability in Powder Concentrate (content by LCMSMS): 5.84 mg/g powder
[1]; day 8
  Stability in Powder Concentrate (content by LCMSMS): 5.91 mg/g powder
[1]; day 9
  Stability in Powder Concentrate (content by LCMSMS): 6.01 mg/g powder
[1]; day 10
  Stability in Powder Concentrate (content by LCMSMS): 5.69 mg/g powder
[1]; day 11
  Stability in Powder Concentrate (content by LCMSMS): 6.00 mg/g powder
[1]; day 12
  Stability in Powder Concentrate (content by LCMSMS): 5.76 mg/g powder
[1]; day 15
  Stability in Powder Concentrate (content by LCMSMS): 5.85 mg/g powder
[1]; day 16
  Stability in Powder Concentrate (content by LCMSMS): 5.97 mg/g powder
[1]; day 17
  Stability in Powder Concentrate (content by LCMSMS): 5.97 mg/g powder
[1]; day 18
  Stability in Powder Concentrate (content by LCMSMS): 6.01 mg/g powder
[1]; day 19
  Stability in Powder Concentrate (content by LCMSMS): 5.74 mg/g powder
[1]; day 22
  Stability in Powder Concentrate (content by LCMSMS): 5.84 mg/g powder
[1]; day 23
  Stability in Powder Concentrate (content by LCMSMS): 6.10 mg/g powder
[1]; day 24
  Stability in Powder Concentrate (content by LCMSMS): 5.89 mg/g powder
[1]; day 25
  Stability in Powder Concentrate (content by LCMSMS): 6.01 mg/g powder
[1]; day 26
  Stability in Powder Concentrate (content by LCMSMS): 6.00 mg/g powder
[1]; day 29
  Stability in Powder Concentrate (content by LCMSMS): 5.97 mg/g powder
[1]; day 30
  Stability in Powder Concentrate (content by LCMSMS): 5.94 mg/g powder
[1]; day 60
  Stability in Powder Concentrate (content by LCMSMS): 5.66 mg/g powder
[1]; day 90
  Stability in Powder Concentrate (content by LCMSMS): 6.00 mg/g powder
[1]; day 120
  Stability in Powder Concentrate (content by LCMSMS): 5.80 mg/g powder
[1]; day 150
  Stability in Powder Concentrate (content by LCMSMS): 5.65 mg/g powder
[1]; day 180
  Stability in Powder Concentrate (content by LCMSMS): 5.93 mg/g powder
[1]; day 210
  Stability in Powder Concentrate (content by LCMSMS): 5.83 mg/g powder
[1]; day 240
  Stability in Powder Concentrate (content by LCMSMS): 5.98 mg/g powder
[1]; day 270
  Stability in Powder Concentrate (content by LCMSMS): 5.72 mg/g powder
[1]; day 300
  Stability in Powder Concentrate (content by LCMSMS): 5.84 mg/g powder
[1]; day 330
  Stability in Powder Concentrate (content by LCMSMS): 6.01 mg/g powder
[1]; day 360
  Stability in Powder Concentrate (content by LCMSMS): 5.97 mg/g powder
[1]; day 390
  Stability in Powder Concentrate (content by LCMSMS): 5.93 mg/g powder
[1]; day 420
  Stability in Powder Concentrate (content by LCMSMS): 5.94 mg/g powder
[1]; day 450
  Stability in Powder Concentrate (content by LCMSMS): 5.65 mg/g powder
[1]; day 480
  Stability in Powder Concentrate (content by LCMSMS): 5.66 mg/g powder
[1]; day 510
  Stability in Powder Concentrate (content by LCMSMS): 6.01 mg/g powder
[1]; day 540
  Stability in Powder Concentrate (content by LCMSMS): 5.81 mg/g powder
[1]; day 570
  Stability in Powder Concentrate (content by LCMSMS): 5.85 mg/g powder
[2]; stored at 8° C.
  Storage time after which slight degradation / significant losses are seen: > 480 days
[2]; stored at 21-25° C.
  Storage time after which slight degradation / significant losses are seen: > 390 days
[2]; day 0
  Stability in AB White, 8° C. (content by LCMSMS): 28.5 µg/mL
[2]; day 1
  Stability in AB White, 8° C. (content by LCMSMS): 27.65 µg/mL
[2]; day 2
  Stability in AB White, 8° C. (content by LCMSMS): 27.67 µg/mL
[2]; day 3
  Stability in AB White, 8° C. (content by LCMSMS): 27.96 µg/mL
[2]; day 5
  Stability in AB White, 8° C. (content by LCMSMS): 28.61 µg/mL
[2]; day 8
  Stability in AB White, 8° C. (content by LCMSMS): 28.47 µg/mL
[2]; day 9
  Stability in AB White, 8° C. (content by LCMSMS): 28.44 µg/mL
[2]; day 10
  Stability in AB White, 8° C. (content by LCMSMS): 27.87 µg/mL
[2]; day 11
  Stability in AB White, 8° C. (content by LCMSMS): 28.13 µg/mL
[2]; day 12
  Stability in AB White, 8° C. (content by LCMSMS): 28.10 µg/mL
[2]; day 15
  Stability in AB White, 8° C. (content by LCMSMS): 27.99 µg/mL
[2]; day 16
  Stability in AB White, 8° C. (content by LCMSMS): 28.04 µg/mL
[2]; day 17
  Stability in AB White, 8° C. (content by LCMSMS): 27.84 µg/mL
[2]; day 18
  Stability in AB White, 8° C. (content by LCMSMS): 27.87 µg/mL
[2]; day 19
  Stability in AB White, 8° C. (content by LCMSMS): 28.36 µg/mL
[2]; day 22
  Stability in AB White, 8° C. (content by LCMSMS): 28.50 µg/mL
[2]; day 23
  Stability in AB White, 8° C. (content by LCMSMS): 27.67 µg/mL
[2]; day 24
  Stability in AB White, 8° C. (content by LCMSMS): 28.44 µg/mL
[2]; day 25
  Stability in AB White, 8° C. (content by LCMSMS): 27.65 µg/mL
[2]; day 26
  Stability in AB White, 8° C. (content by LCMSMS): 27.73 µg/mL
[2]; day 29
  Stability in AB White, 8° C. (content by LCMSMS): 28.24 µg/mL
[2]; day 30
  Stability in AB White, 8° C. (content by LCMSMS): 27.93 µg/mL
[2]; day 60
  Stability in AB White, 8° C. (content by LCMSMS): 27.73 µg/mL
[2]; day 90
  Stability in AB White, 8° C. (content by LCMSMS): 27.87 µg/mL
[2]; day 120
  Stability in AB White, 8° C. (content by LCMSMS): 27.39 µg/mL
[2]; day 150
  Stability in AB White, 8° C. (content by LCMSMS): 28.59 µg/mL
[2]; day 180
  Stability in AB White, 8° C. (content by LCMSMS): 27.59 µg/mL
[2]; day 210
  Stability in AB White, 8° C. (content by LCMSMS): 27.76 µg/mL
[2]; day 240
  Stability in AB White, 8° C. (content by LCMSMS): 27.79 µg/mL
[2]; day 270
  Stability in AB White, 8° C. (content by LCMSMS): 28.07 µg/mL
[2]; day 300
  Stability in AB White, 8° C. (content by LCMSMS): 27.96 µg/mL
[2]; day 330
  Stability in AB White, 8° C. (content by LCMSMS): 27.33 µg/mL
[2]; day 360
  Stability in AB White, 8° C. (content by LCMSMS): 27.79 µg/mL
[2]; day 390
  Stability in AB White, 8° C. (content by LCMSMS): 27.50 µg/mL
[2]; day 420
  Stability in AB White, 8° C. (content by LCMSMS): 27.50 µg/mL
[2]; day 480
  Stability in AB White, 8° C. (content by LCMSMS): 27.13 µg/mL
[2]; day 510
  Stability in AB White, 8° C. (content by LCMSMS): 26.48 µg/mL
[2]; day 540
  Stability in AB White, 8° C. (content by LCMSMS): 26.51 µg/mL
[2]; day 570
  Stability in AB White, 8° C. (content by LCMSMS): 26.22 µg/mL
[3]; stored at 8° C.
  Storage time after which slight degradation / significant losses are seen: > 420 days
[3]; stored at 21-25° C.
  Storage time after which slight degradation / significant losses are seen: > 390 days
